Experimental data: the supplement of paper PMC13380429

Assays:
Conditions in all cases: 72 h
Calu-3 [1] = experiment: drug sensitivity score (DSS) for viability; higher = more toxic; extreme values may be limits of the assay
HepG2 [2] = experiment: as above
U2OS [3] = experiment: as above
Vero E6 [4] = experiment: as above
Caco-2 [5] = experiment: as above
Calu-3 [6] = experiment: relative viability EC50 (midpoint between 100% and the lowest measured viability); higher = less toxic
HepG2 [7] = experiment: as above
U2OS [8] = experiment: as above
Vero E6 [9] = experiment: as above
Caco-2 [10] = experiment: as above
Calu-3 [11] = experiment: cell viability relative to DMSO; higher = less toxic
HepG2 [12] = experiment: as above
U2OS [13] = experiment: as above
Vero E6 [14] = experiment: as above
Caco-2 [15] = experiment: as above

| SMILES | drug sensitivity score (Calu-3 [1]) | drug sensitivity score (HepG2 [2]) | drug sensitivity score (U2OS [3]) | drug sensitivity score (Vero E6 [4]) | drug sensitivity score (Caco-2 [5]) | relative viability EC50 (Calu-3 [6]) [µM] | relative viability EC50 (HepG2 [7]) [µM] | relative viability EC50 (U2OS [8]) [µM] | relative viability EC50 (Vero E6 [9]) [µM] | relative viability EC50 (Caco-2 [10]) [µM] | cell viability (Calu-3 [11]; 1 nM) [%] | cell viability (Calu-3 [11]; 10 nM) [%] | cell viability (Calu-3 [11]; 100 nM) [%] | cell viability (Calu-3 [11]; 1000 nM) [%] | cell viability (Calu-3 [11]; 10000 nM) [%] | cell viability (HepG2 [12]; 1 nM) [%] | cell viability (HepG2 [12]; 10 nM) [%] | cell viability (HepG2 [12]; 100 nM) [%] | cell viability (HepG2 [12]; 1000 nM) [%] | cell viability (HepG2 [12]; 10000 nM) [%] | cell viability (U2OS [13]; 1 nM) [%] | cell viability (U2OS [13]; 10 nM) [%] | cell viability (U2OS [13]; 100 nM) [%] | cell viability (U2OS [13]; 1000 nM) [%] | cell viability (U2OS [13]; 10000 nM) [%] | cell viability (Vero E6 [14]; 1 nM) [%] | cell viability (Vero E6 [14]; 10 nM) [%] | cell viability (Vero E6 [14]; 100 nM) [%] | cell viability (Vero E6 [14]; 1000 nM) [%] | cell viability (Vero E6 [14]; 10000 nM) [%] | cell viability (Caco-2 [15]; 1 nM) [%] | cell viability (Caco-2 [15]; 10 nM) [%] | cell viability (Caco-2 [15]; 100 nM) [%] | cell viability (Caco-2 [15]; 1000 nM) [%] | cell viability (Caco-2 [15]; 10000 nM) [%] |
| --- | --- | --- | --- | --- | --- | --- | --- | --- | --- | --- | --- | --- | --- | --- | --- | --- | --- | --- | --- | --- | --- | --- | --- | --- | --- | --- | --- | --- | --- | --- | --- | --- | --- | --- | --- |
| CC(C)[C@H](CO)Nc1nc(Nc2ccc(C(=O)O)c(Cl)c2)c2ncn(C(C)C)c2n1 [purvalanol-B] | 0 | 0 | 0 | 0 | 0 | > 10 | > 10 | > 10 | > 10 | > 10 | 111 | 101 | 106 | 114 | 95.5 | 93.5 | 99.2 | 99.1 | 98.4 | 98.9 | 97.1 | 96.1 | 101 | 103 | 107 | 94 | 96.4 | 95.9 | 94.9 | 103 | 89.4 | 91.9 | 103 | 96.8 | 98.3 |
| CC(=O)Oc1cc(C(F)(F)F)ccc1C(=O)O [triflusal] | 0 | 0 | 0 | 0 | 0 | > 10 | > 10 | > 10 | > 10 | > 10 | 98.6 | 97.9 | 93.5 | 92.2 | 103 | 90.6 | 90.5 | 92.1 | 101 | 111 | 96.2 | 102 | 99.5 | 97.9 | 101 | 99.4 | 96.9 | 97.7 | 100 | 94.5 | 96 | 106 | 90 | 98.4 | 103 |
| N[C@@H]1CONC1=O [cycloserine-(D)] | 0 | 0 | 0 | 0 | 0 | > 10 | > 10 | > 10 | > 10 | > 10 | 99.6 | 102 | 97.2 | 105 | 96.7 | 106 | 101 | 104 | 89.7 | 108 | 96.7 | 96.3 | 96.4 | 96.7 | 97 | 99.6 | 104 | 98.2 | 99.8 | 103 | 89.5 | 96.2 | 100 | 98.7 | 105 |
| CC[C@H](C)[C@H](N)C1=N[C@H](C(=O)N[C@@H](CC(C)C)C(=O)N[C@H](CCC(=O)[O-])C(=O)N[C@H](C(=O)N[C@H]2CCCCNC(=O)[C@H](CC(N)=O)NC(=O)[C@@H](CC(=O)[O-])NC(=O)[C@H](Cc3cnc[nH]3)NC(=O)[C@@H](Cc3ccccc3)NC(=O)[C@H]([C@@H](C)CC)NC(=O)[C@@H](CCCN)NC2=O)[C@@H](C)CC)CS1.[Zn+2] [bacitracin-zinc] | 0 | 0 | 0 | 0 | 0 | > 10 | > 10 | > 10 | > 10 | > 10 | 93.7 | 106 | 112 | 99.9 | 106 | 96.9 | 100 | 110 | 93.6 | 111 | 92.8 | 99.4 | 96.4 | 103 | 104 | 96.2 | 89.9 | 100 | 95.5 | 112 | 93.8 | 90.5 | 104 | 104 | 110 |
| CN(C)CC(=O)Nc1ccc2[nH]c(=O)c3ccccc3c2c1 [PJ-34] | 0 | 0 | 0 | 0 | 0 | > 10 | > 10 | > 10 | > 10 | > 10 | 95.5 | 100 | 96.2 | 104 | 98.5 | 97.5 | 99.3 | 97.8 | 103 | 98.6 | 92.2 | 102 | 94 | 94.6 | 95.6 | 96.7 | 93.2 | 101 | 100 | 102 | 91.5 | 101 | 99.3 | 97.2 | 104 |
| N#C/C(=C\c1cn(-c2ccccc2)c2ccccc12)C(=O)O [UK-5099] | 0 | 0 | 0 | 0 | 0 | > 10 | > 10 | > 10 | > 10 | > 10 | 106 | 90.1 | 106 | 93.1 | 106 | 105 | 101 | 101 | 97 | 95.7 | 98.5 | 98.8 | 95.4 | 103 | 106 | 98.1 | 102 | 99.7 | 99.8 | 101 | 98.1 | 106 | 100 | 94 | 104 |
| C[N+](C)(CCOc1ccccc1)Cc1ccccc1 [bephenium-hydroxynaphthoate] | 0 | 0 | 0 | 0 | 0 | > 10 | > 10 | > 10 | > 10 | > 10 | 102 | 103 | 90 | 98 | 102 | 100 | 98.4 | 92.3 | 96.8 | 100 | 93.7 | 99.4 | 93.5 | 101 | 102 | 98.2 | 96.9 | 94.8 | 92.6 | 103 | 96.1 | 99.4 | 106 | 102 | 102 |
| C(=C\c1ccccc1)/CN1CCN(CCOC(c2ccccc2)c2ccccc2)CC1 | 0 | 0 | 0 | 0 | 0.6 | > 10 | > 10 | > 10 | > 10 | > 10 | 113 | 99.3 | 98.5 | 92 | 98.8 | 92.7 | 97.3 | 91.3 | 90.4 | 95.4 | 99.1 | 95.5 | 95.8 | 103 | 100 | 98 | 97 | 95.8 | 91.7 | 91.6 | 102 | 87.5 | 101 | 99.1 | 80.5 |
| CCc1ccc(OCc2ccccc2C(=O)Nc2ccc3nc(C)cc(N)c3c2)cc1 [JTC-801] | 5.6 | 7.4 | 5.9 | 6.4 | 6.8 | 3.18 | 2.25 | 3 | 2.69 | 2.49 | 97.7 | 102 | 100 | 100 | 0.2 | 114 | 95.6 | 102 | 89 | -0.1 | 96 | 99.2 | 96.6 | 97.8 | -0.1 | 101 | 99.7 | 102 | 94.1 | -0.1 | 97.8 | 94.5 | 90.4 | 91.9 | 0.6 |
| Cc1sc(C)c(C(=O)NC2(c3ccc(C(=O)O)cc3)CC2)c1Cc1ccc(C(F)(F)F)cc1 [MK-2894] | 0 | 0 | 0 | 0 | 0 | > 10 | > 10 | > 10 | > 10 | > 10 | 99.3 | 107 | 103 | 101 | 109 | 104 | 99.9 | 111 | 96.4 | 96.4 | 93.1 | 99.8 | 100 | 102 | 106 | 93.7 | 92.9 | 96.5 | 93.6 | 85.9 | 94.8 | 95.7 | 89 | 101 | 101 |
| O=C(OC(C(F)(F)F)C(F)(F)F)N1CCC(C(O)(c2ccc3c(c2)OCO3)c2ccc3c(c2)OCO3)CC1 [KML29] | 0 | 0 | 0 | 0 | 0 | > 10 | > 10 | > 10 | > 10 | > 10 | 109 | 105 | 98 | 108 | 92.6 | 96.7 | 96.1 | 94.1 | 106 | 98.8 | 103 | 99.8 | 101 | 95.5 | 95.5 | 94 | 96.2 | 97.8 | 98.3 | 91.7 | 94.6 | 99.6 | 117 | 97 | 106 |
| c1ccc(CC2=NCCN2)cc1 [tolazoline] | 0 | 0 | 0 | 0 | 0 | > 10 | > 10 | > 10 | > 10 | > 10 | 103 | 103 | 87.3 | 98.4 | 114 | 97.3 | 102 | 101 | 108 | 99.9 | 99.9 | 97.9 | 102 | 101 | 101 | 108 | 111 | 104 | 106 | 98.6 | 103 | 93.1 | 97.5 | 95 | 98 |
| C=CC1=C(C)C2=CC3=NC(=C(CC(=O)O)C4=NC(=C(C)C4=C(O)O)C=c4[nH]c(c(C)c4CC)=CC1=N2)C(CCC(=O)O)C3C (stereo not given) [chlorophyllin] | 0 | 0 | 0 | 0 | 0 | > 10 | > 10 | > 10 | > 10 | > 10 | 111 | 89.7 | 93.2 | 101 | 116 | 97.3 | 106 | 115 | 112 | 106 | 97.7 | 96.1 | 100 | 96 | 103 | 100 | 99.9 | 95.7 | 96.9 | 92.6 | 102 | 104 | 96.6 | 91 | 91.4 |
| CCN1CCCC1CNC(=O)c1cc(S(=O)(=O)CC)c(N)cc1OC (stereo not given) [amisulpride] | 0 | 0 | 0 | 0 | 0 | > 10 | > 10 | > 10 | > 10 | > 10 | 96.4 | 103 | 99.2 | 104 | 103 | 104 | 104 | 94.6 | 99.3 | 102 | 103 | 99.9 | 102 | 98.5 | 103 | 98.6 | 106 | 99.4 | 98.5 | 98.8 | 98.8 | 88.6 | 96.7 | 97.1 | 96.1 |
